This passage reports GI50 and TGI results from PubChem BioAssay (NCI).

The structures appear in SMILES notation.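 Method: 48-hour compound exposure of cells in 96-well plates, five concentrations, linear interpolation of endpoints. GI50: concentration for 50% inhibition of growth. TGI: total growth inhibition.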

Test systems include SNB-19 CNS; A498 renal; SK-OV-3 ovarian; SF-539 CNS; CCRF-CEM leukemia; MALME-3M melanoma; SK-MEL-5 melanoma; UO-31 renal; HOP-92 NSCLC; A549 NSCLC.
Holding throughout (experiment): NCI-60 cell line screen, 48 h

Take `COc1ccc(-c2cc(=O)oc3c4c(ccc23)OCN(Cc2ccc(F)cc2)C4)cc1`: the GI50 with SNB-19 CNS was 15.6 µM; with A498 renal, 1.23 µM; in the test with SK-OV-3 ovarian, 19.1 µM; in the test with SF-539 CNS it was 15.8 µM; in the test on CCRF-CEM leukemia, 25.8 µM; with MALME-3M melanoma it was 15.4 µM. In addition, the GI50 in the test on SK-MEL-5 melanoma is 12.7 µM; with UO-31 renal it was 7.26 µM; with HOP-92 NSCLC, 10 µM; with A549 NSCLC, 25.6 µM. The TGI in the test with SNB-19 CNS stood at 36.4 µM; with A498 renal, 10.3 µM; with SK-OV-3 ovarian it was 52.9 µM; with SF-539 CNS it was 32.5 µM; with CCRF-CEM leukemia it was 82 µM; in the test with MALME-3M melanoma, 32.7 µM. For the same compound, the TGI in the test with SK-MEL-5 melanoma is 25.4 µM; in the test on UO-31 renal, 37.9 µM; in the test on HOP-92 NSCLC, 24.2 µM; with A549 NSCLC, above 100 µM.
Take `CCOC(=O)Nc1c(C)nc2ccccn12`: the GI50 in the test on SNB-19 CNS, with A498 renal, in the test with SK-OV-3 ovarian, with SF-539 CNS, in the test with CCRF-CEM leukemia and in the test with MALME-3M melanoma was above 100 µM throughout. Moreover, the GI50 in the test with SK-MEL-5 melanoma, in the test on UO-31 renal, in the test on HOP-92 NSCLC and in the test on A549 NSCLC was above 100 µM each time. For the same compound, the TGI in the test with SNB-19 CNS, with A498 renal, in the test on SK-OV-3 ovarian, in the test with SF-539 CNS, in the test on CCRF-CEM leukemia and with MALME-3M melanoma was above 100 µM each time. The TGI in the test on SK-MEL-5 melanoma, with UO-31 renal, in the test with HOP-92 NSCLC and with A549 NSCLC was above 100 µM in each case.
As for `CCCCCCCCSC1=C(Cl)C(=O)C(OC)=C(OC)C1=O`, the TGI in the test on SNB-19 CNS is 24.3 µM; in the test with A498 renal, 27.9 µM; with SK-OV-3 ovarian, above 100 µM; in the test on SF-539 CNS, 32.7 µM; in the test with CCRF-CEM leukemia, above 100 µM; in the test on MALME-3M melanoma it was 21.8 µM. Also, the TGI in the test with SK-MEL-5 melanoma worked out at 18.6 µM; in the test with UO-31 renal, 25.7 µM; in the test with HOP-92 NSCLC, 35.1 µM; in the test with A549 NSCLC, 48.4 µM.
